The subject of test [1] is Guinea-Pig Bladder (GPB) Cells. The experiment in a line: Membrane Hyperpolarization (MHP) assay, DiBAC(4)3 / FLIPR. Conditions: for EC50: membrane hyperpolarization, GPB cells; for Emax: read-out: Maximal Response (% P1075), maximal steady-state hyperpolarization, normalized to 10 μM P1075 (100%); for Maximal Response (% P1075): maximal steady-state hyperpolarization, normalized to 10 μM P1075 (100%).
Description: Compounds were evaluated for potassium channel opening activity using primary cultured guinea-pig urinary bladder (GPB) cells.
For the preparation of urinary bladder smooth muscle cells, urinary bladders were removed from male guinea-pigs (Hartley, Charles River, Wilmington, Mass.) weighing 300-400 grams (g) and placed in ice-cold Ca^2+-free Krebs solution (Composition, millimolar (mM): KCl, 2.7; KH2PO4, 1.5; NaCl, 75; Na2HPO4, 9.6; Na2HPO4.7H2O, 8; MgSO4, 2; glucose, 5; HEPES, 10; pH 7.4). Cells were isolated by enzymatic dissociation (Klockner, U. and Isenberg, G., Pflugers Arch. (1985), 405, 329-339). The bladder was cut into small sections and incubated in 5 milliliters (mL) of the Kreb's solution containing 1 milligram per milliliter (mg/mL) of collagenase (Sigma, St. Louis, Mo.) and 0.2 mg/mL of pronase (Calbiochem, La Jolla, Calif.) with continuous stirring in a cell incubator for 30 minutes. The mixture was then centrifuged at 1300× g for 5 minutes, and the pellet resuspended in Dulbecco's phosphate buffered saline (PBS) (GIBCO, Gaithersburg, Md.) and recentrifuged to remove residual enzyme. The cell pellet was resuspended in 5 mL growth media (composition: Dulbecco's modified Eagle's medium supplemented with 10% fetal bovine serum, 100 units/mL penicillin, 100 units/mL streptomycin and 0.25 mg/mL amphotericin B) and further dissociated by pipetting the suspension through a flame-polished Pasteur pipette and passing it through a polypropylene mesh membrane (Spectrum, Houston, Tex.). The cell density was adjusted to 100,000 cells/mL by resuspension in growth media. Cells were plated in clear-bottomed black 96-well plates (Packard) for membrane potential studies at a density of 20,000 cells/well and maintained in a cell incubator with 90% air: 10% CO2 until confluent. Cells were confirmed to be of smooth muscle type by cytoskeletal staining using a monoclonal mouse anti human-α-smooth muscle actin (Biomeda, Foster City, Calif.).
Functional activity at potassium channels was measured by evaluating changes in membrane potential using the bis-oxonol dye DiBAC(4)3 (Molecular Probes) in a 96-well cell-based kinetic assay system using a Fluorescent Imaging Plate Reader (FLIPR) (K. S. Schroeder et al., J. Biomed. Screen., v. 1 pp. 75-81 (1996)). DiBAC(4)3 is an anionic potentiometric probe which partitions between cells and extracellular solution in a membrane potential-dependent manner. With increasing membrane potential (for example, K^+ depolarization), the probe further partitions into the cell; this is measured as an increase in fluorescence due to dye interaction with intracellular lipids and proteins. Conversely, decreasing membrane potential (hyperpolarization by potassium channel openers) evokes a decrease in fluorescence.
Confluent guinea-pig urinary bladder cells cultured in black clear-bottomed 96-well plates were rinsed twice with 200 mL assay buffer (composition, mM: HEPES, 20; NaCl, 120; KCl, 2; CaCl2, 2; MgCl2, 1; glucose, 5; pH 7.4 at 25° C.) containing 5 μM DiBAC(4)3 and incubated with 180 mL of the buffer in a cell incubator for 30 minutes at 37° C. to ensure dye distribution across the membrane. After recording the baseline fluorescence for 5 minutes, the reference or test compounds, prepared at 10 times the concentration in the assay buffer, were added directly to the wells. Changes in fluorescence were monitored for an additional 25 minutes.
Routinely, five concentrations of P1075 or test compounds (log or half-log dilutions) were evaluated and the maximal steady-state hyperpolarization values (expressed as % relative to P1075) plotted as a function of concentration. The EC50 (concentration that elicites 50% of the maximal response for the test sample) values were calculated by non-linear regression analysis using a four parameter sigmoidal equation. The maximal micromolar EC50 response of each compound (expressed as % relative to P1075) is reported.

A further test relates to Landrace Pig Bladder. Kind of test: Functional potassium channel opening activity in isolated bladder strips (field-stimulated twitch). To be noted: for Index: ED50 for P1075 divided by ED50 for the test agonist, averaged over tissues; for Emax / EC50: Sus scrofa; for Emax / Efficacy (% P1075): maximal efficacy relative to P1075, field stimulated bladder strips; for EC50 / pD2: negative logarithm of ED50; for EC50: read-out: pD2 (converted). As to the method: Compounds were evaluated for functional potassium channel opening activity using tissue strips obtained from Landrace pig bladders. Landrace pig bladders were obtained from female Landrace pigs of 9-30 kg. Landrace pigs were euthanized with an intraperitoneal injection of pentobarbital solution, Somlethal®, J. A. Webster Inc. Sterling Mass. The entire bladder was removed and immediately placed into Krebs Ringer bicarbonate solution (composition, mM: NaCl, 120; […] Dextrose, 4.7; […] Propranolol (0.004 mM) was included in all of the assays to block β-adrenoceptors. The trigonal and dome portions were […], Strips 3-5 […] (mm) wide and 20 mm long were prepared from the remaining tissue cut in a circular fashion. The mucosal layer was removed. One end was fixed to a stationary glass rod and the other to a Grass FT03 transducer at a basal preload of 1.0 g. Two parallel platinum electrodes were included in the stationary glass trod to provide field stimulation of 0.05 Hz, 0.5 milli-seconds at 20 volts. […] Tissues were allowed to equilibrate for at least 60 minutes and primed with 80 mM KCl. A control concentration response curve (cumulative) was generated for each tissue using the potassium channel opener […] as the control agonist. […] After a 60 minute rinsing period, a concentration response curve (cumulative) was generated for the test agonist in the same fashion as that used for the control agonist […]. The maximal efficacy of each compounds (expressed as % relative to […]) is reported. The amount of agent necessary to cause 50% of the agent's maximal response (ED50) was calculated using “ALLFIT” (DeLean et al., Am. J. […] Agonist potencies were also expressed as an index relative to […]. The index was calculated by dividing the ED50 for […] by the ED50 for the test agonist in a given tissue. Each tissue was used for only one test agonist, and the indices obtained from each tissue were averaged to provide an average index of potency.

Consider `Cl.O=C1CNCC2=C1C(c1ccc(F)c(Br)c1)C1=C(COCC1=O)N2` (centres unmarked) [Example 24, 5-(3-bromo-4-fluorophenyl)-5,8,9,10-tetrahydro-1H-pyrano[3,4-b][1,7]naphthyridine-4,6(3H,7H)-dione Hydrochloride], for which, in test [1] (Cavia porcellus), the EC50 came out at 0.73 µM and the Emax stood at 74%. Also, in the test on Landrace Pig Bladder, the Index is reported as 0.055, the Emax was determined as 100% and the EC50 was 1 µM.
For the molecule `O=C1COCC2=C1C(c1ccc(Cl)c([N+](=O)[O-])c1)C1=C(COCC1=O)N2` [Example 28, 5-(4-chloro-3-nitrophenyl)-5,10-dihydro-1H,3H-dipyrano[3,4-b:4,3-e]pyridine-4,6(7H,9H)-dione], in test [1], the “Maximal Response (% P1075)” value is 98 % P1075 and the EC50 came out at 0.064 µM. For the same molecule, in the test with Landrace Pig Bladder, the Index is recorded as 0.42, the “Efficacy (% P1075)” value was 94 % P1075 and the pD2 stood at 6.7.
In the same order, the values of `N#Cc1cccc(C2C3=C(COCC3=O)NC3=C2C(=O)COC3)c1` [Example 29, 5-(3-cyanophenyl)-5,10-dihydro-1H,3H-dipyrano[3,4-b:4,3-e]pyridine-4,6(7H,9H)-dione] are 87 % P1075, 1.1 µM, 0.075, 89 % P1075 and 5.8.
Regarding `O=C1COCC2=C1C(c1ccc(F)c(I)c1)C1=C(COCC1=O)N2` [Example 30, 5-(4-fluoro-3-iodophenyl)-5,10-dihydro-1H,3H-dipyrano[3,4-b:4,3-e]pyridine-4,6(7H,9H)-dione], in test [1], the “Maximal Response (% P1075)” value is 81 % P1075 and the EC50 was 0.005 µM. Moreover, in the test on Landrace Pig Bladder, the Index is recorded as 1.1, the “Efficacy (% P1075)” value was determined as 100 % P1075 and the pD2 was found to be 7.6.
On to `O=C1COCC2=C1C(c1cc(Br)ccc1O)C1=C(COCC1=O)N2` [Example 31, 5-(5-bromo-2-hydroxyphenyl)-5,10-dihydro-1H,3H-dipyrano[3,4-b:4,3-e]pyridine-4,6(7H,9H)-dione], for which, in test [1], the “Maximal Response (% P1075)” value amounted to 83 % P1075 and the EC50 came out at 1.3 µM. In addition, in the test with Landrace Pig Bladder, the Index stood at 0.065, the “Efficacy (% P1075)” value stood at 85 % P1075 and the pD2 was determined as 5.1.
As to `O=C1COCC2=C1C(c1ccc(F)c(C(F)(F)F)c1)C1=C(COCC1=O)N2` [Example 32, 5-[4-fluoro-3-(trifluoromethyl)phenyl]-5,10-dihydro-1H, 3H-dipyrano[3,4-b:4,3-e]pyridine-4,6(7H,9H)-dione], in test [1], the “Maximal Response (% P1075)” value came out at 102 % P1075 and the EC50 was 0.015 µM. In the test with Landrace Pig Bladder, the Index came out at 0.41, the “Efficacy (% P1075)” value is given as 100 % P1075 and the pD2 was 6.3.
In the same order, the values of `O=C1COCC2=C1C(c1ccc(Cl)c(Cl)c1)C1=C(COCC1=O)N2` [Example 33, 5-(3,4-dichlorophenyl)-5,10-dihydro-1H,3H-dipyrano[3,4-b:4,3-e]pyridine-4,6(7H,9H)-dione] are 92 % P1075, 0.0034 µM, 0.27, 93 % P1075 and 5.9.
Regarding `O=C1COCC2=C1C(c1ccc3nonc3c1)C1=C(COCC1=O)N2` [Example 34, 5-(2,1,3-benzoxadiazol-5-yl)-5,10-dihydro-1H,3H-dipyrano[3,4-b:4,3-e]pyridine-4,6(7H,9H)-dione], in test [1], the “Maximal Response (% P1075)” value was determined as 88 % P1075 and the EC50 turned out to be 0.091 µM. Further, in the test on Landrace Pig Bladder, the Index turned out to be 0.96, the “Efficacy (% P1075)” value was 93 % P1075 and the pD2 is 7.0.
In the same order, the values of `O=C1COCC2=C1C(c1ccc([N+](=O)[O-])s1)C1=C(COCC1=O)N2` [Example 35, 5-(5-nitro-2-thienyl)-5,10-dihydro-1H,3H-dipyrano[3,4-b:4,3-e]pyridine-4,6(7H,9H)-dione] are 98 % P1075, 0.025 µM, 1.8, 100 % P1075 and 7.4.
On to `O=C1COCC2=C1C(c1csc([N+](=O)[O-])c1)C1=C(COCC1=O)N2` [Example 36, 5-(5-nitro-3-thienyl)-5,10-dihydro-1H,3H-dipyrano[3,4-b:4,3-e]pyridine-4,6(7H,9H)-dione], for which, in test [1], the “Maximal Response (% P1075)” value was 98 % P1075 and the EC50 was 0.082 µM. Besides, in the test with Landrace Pig Bladder, the Index was found to be 0.24, the “Efficacy (% P1075)” value is given as 100 % P1075 and the pD2 worked out at 6.5.
Consider `O=C1COCC2=C1C(c1ccc(F)c(I)c1)C1=C(CCS1(=O)=O)N2` (centres unmarked) [Example 37, 9-(4-fluoro-3-iodophenyl)-2,3,5,9-tetrahydro-4H-pyrano[3,4-b]thieno[2,3-e]pyridin-8(7H)-one 1,1-dioxide], for which, in test [1] (Cavia porcellus), the EC50 worked out at 0.00064 µM and the Emax is 105%. Besides, in the test on Landrace Pig Bladder, the Index is listed as 2.1, the Emax came to 95% and the EC50 was 0.0501 µM.
In the same order, the values of `Cl.O=C1CCC2=C1C(c1ccc(F)c(Cl)c1)C1=C(CNCC1=O)N2` (centres unmarked) [Example 38, 5-(3-chloro-4-fluorophenyl)-2,3,5,7,8,9-hexahydro-1H-cyclopenta[b][1,7]naphthyridine-4,6-dione Hydrochloride] are 0.39 µM, 82%, 0.024, 80% and 5.01 µM.
With `Cl.O=C1CNCC2=C1C(c1ccc(F)c(Br)c1)C1=C(COC1=O)N2` (centres unmarked) [Example 39, 9-(3-bromo-4-fluorophenyl)-5,6,7,9-tetrahydrofuro[3,4-b][1,7]naphthyridine-1,8(3H,4H)-dione Hydrochloride], in test [1] (Hydrochloride), the “Maximal Response (% P1075)” value is on record as 80 % P1075 and the EC50 came to 0.68 µM. Also, in the test with Landrace Pig Bladder (Hydrochloride), the Index is listed as 0.036 and the pD2 was determined as 5.6. In the test with Landrace Pig Bladder, this molecule showed an Emax of 96%.
Turning to `Cl.O=C1CNCC2=C1C(c1ccc(F)c(Br)c1)C1=C(COC1=O)N2` (centres unmarked) [Example 40, 9-(3-bromo-4-fluorophenyl)-5,6,7,9-tetrahydrofuro [3,4-b][1,7]naphthyridine-1,8(3H,4H)-dione hydrochloride], in test [1] (Hydrochloride), the “Maximal Response (% P1075)” value is on record as 111 % P1075 and the EC50 turned out to be 0.32 µM. For the same molecule, in the test on Landrace Pig Bladder (Hydrochloride), the Index is listed as 0.13, the “Efficacy (% P1075)” value turned out to be 91 % P1075 and the pD2 is recorded as 6.0.
Consider `O=C1CCCC2=C1C(c1ccc(F)c(Br)c1)C1=C(CSCC1=O)N2` (centres unmarked) [Example 50, 5-(3-bromo-4-fluorophenyl)-5,8,9,10-tetrahydro-1H-thiopyrano[3,4-b]quinoline-4,6(3H,7H)-dione], for which, in test [1] (Cavia porcellus), the EC50 turned out to be 0.084 µM and the Emax amounted to 108%. In the test with Landrace Pig Bladder, the Index turned out to be 0.28, the Emax stood at 96% and the EC50 was 0.631 µM.
Consider `O=C1COCC2=C1C(c1ccc(F)c(Br)c1)C1=C(CCNC1=O)N2` (centres unmarked) [Example 52, 10-(3-bromo-4-fluorophenyl)-3,4,6,10-tetrahydro-2H-pyrano[3,4-b][1,6]naphthyridine-1,9(5H,8H)-dione], for which, in test [1] (Cavia porcellus), the EC50 amounted to 0.38 µM and the Emax stood at 105%. Moreover, in the test on Landrace Pig Bladder, the Index is given as 0.069, the Emax worked out at 99% and the EC50 was 5.01 µM.

The values above are taken from US6642222B2, “Pyrano, piperidino, and thiopyrano compounds and methods of use” (Abbott Laboratories, priority 1998, dated 2003).
